Patent publication US11306115B2, “Aminoglycoside derivatives and uses thereof in treating genetic disorders” (priority 2015, dated 2022)
“Also recorded” adds a separate entry of the source.

Legend:
[1] = tested on: Rett syndrome causing premature stop codon mutations R168X, R270X and R294X; format: cell-based, human; settings: offered as explanation of limited readthrough level, 0.3 and 1 mM
[2] = tested on: cystic fibrosis G542X nonsense mutation; test: Readthrough activity in cell-free assay, cystic fibrosis G542X nonsense mutation suppression dose-response; format: biochemical, rabbit; settings: concentration range 0-50 μM; for mutation suppression activity (firefly expression and firefly/renilla expression ratio, G542X mutant sequence): FIGS. 4-7; for protein synthesis inhibitory effect (expression levels up or downstream of the WT sequence): FIGS. 4A, 4C, 4E, 6
Experimental: (§1) The plasmids were transcribed in vitro and translated using rabbit reticulocytes (TNT mix) and then tested for the expression levels of the firefly and renilla luciferases. WT plasmids expressed both firefly and renilla luciferases while mutant plasmids expressed only the renilla luciferase due to the stop codon found in the inserted sequence. The readthrough assays were conducted for the tested compounds and the controls by adding the compounds to the in vitro transcription/translation reaction mixture. In case the compounds exerted suppression of the premature nonsense/stop codon mutation, the firefly luciferase was expressed and a fold-change in its expression was observed.
Readthrough activity of Cystic Fibrosis (CF) mutation G542X was tested using the compounds presented in Table 1, and the mutation suppression was calculated based on firefly/renilla expression ratio values, and normalized with respect to the expression level of the WT and the control sample (no tested compound).

[3] = tested on: Rett syndrome R168X, R270X and R294X nonsense mutations; test: Readthrough activity in cell-free assay, Rett syndrome nonsense mutations suppression; format: biochemical, rabbit; settings: 5 μM, FIGS. 8A-C; for firefly/renilla expression ratio compared with the control, wild type cell extracts: WT
Experimental: as §1
FIGS. 8A-C present the results of Rett syndrome R168X (FIG. 8A), R270X (FIG. 8B) and R294X (FIG. 8C) nonsense mutations suppression cell-free assays conducted for six exemplary compounds according to embodiments of the present invention, NB144, NB145, NB146, NB150, NB151 and NB152, at a concentration of 5 μM. As shown therein, when compared with the control (non-treated cell extracts), the wild type cell extracts are unaffected (approx. 100%); however, in all three Rett syndrome mutation models there is a significant impact of the different treatments on the readthrough activity (>>>100%).

## CN[C@@H]1[C@@H](O)[C@@H](O[C@@H]2[C@@H](O)[C@H](O[C@H]3O[C@H]([C@@H](C)O)[C@@H](O)[C@H](O)[C@H]3N)[C@@H](N)C[C@H]2N)OC[C@]1(C)O [Compound G418]
[1]
  cytotoxicity: significant cytotoxicity

## C[C@@H](O)C1O[C@H](O[C@@H]2C(N)C[C@@H](NC(=O)C(O)CCN)C(O)C2O[C@@H]2O[C@H](CNC(=N)N)C(O)C2O)C(N)C(O)[C@@H]1O (stereo in doubt) [NB152]
[2]
  mutation suppression activity (firefly expression and firefly/renilla expression ratio, G542X mutant sequence): notable dose-dependent readthrough activity
  protein synthesis inhibitory effect (expression levels up or downstream of the WT sequence): protein synthesis inhibition
[3]
  readthrough activity, comparison in words: higher activity compared to NB150 and NB151
  firefly/renilla expression ratio compared with the control, wild type cell extracts: approx. 100%

## C[C@@H](O)C1O[C@H](O[C@@H]2C(N)CC(NCc3ccccc3)[C@@H](O)C2O)C(N)C(O)[C@@H]1O (stereo in doubt) [NB145]
[2]
  mutation suppression activity (firefly expression and firefly/renilla expression ratio, G542X mutant sequence): notable dose-dependent readthrough activity
[3]
  firefly/renilla expression ratio compared with the control, wild type cell extracts: approx. 100%

## C[C@@H](O)C1O[C@H](O[C@@H]2C(N)C[C@@H](N)C(O)C2O[C@@H]2O[C@H](CNC(=N)N)C(O)C2O)C(N)C(O)[C@@H]1O (stereo in doubt) [NB151]
[2]
  mutation suppression activity (firefly expression and firefly/renilla expression ratio, G542X mutant sequence): notable dose-dependent readthrough activity
[3]
  firefly/renilla expression ratio compared with the control, wild type cell extracts: approx. 100%

## CCCNC1CC(N)[C@@H](O[C@H]2OC([C@@H](C)O)[C@@H](O)C(O)C2N)C(O)[C@@H]1O (stereo in doubt) [NB146]
[2]
  mutation suppression activity (firefly expression and firefly/renilla expression ratio, G542X mutant sequence): clearly dose-dependent; also recorded: notable dose-dependent readthrough activity
  protein synthesis inhibitory effect (expression levels up or downstream of the WT sequence): more protein synthesis inhibitory effect
[3]
  readthrough activity, comparison in words: better activity compared to NB144 and NB145
  firefly/renilla expression ratio compared with the control, wild type cell extracts: approx. 100%

## C[C@@H](O)C1O[C@H](O[C@@H]2C(N)CC(NC(=N)N)[C@@H](O)C2O)C(N)[C@H](O)[C@@H]1O (stereo in doubt) [NB150]
[2]
  mutation suppression activity (firefly expression and firefly/renilla expression ratio, G542X mutant sequence): notable dose-dependent readthrough activity
[3]
  firefly/renilla expression ratio compared with the control, wild type cell extracts: approx. 100%

## CC(C)CNC1CC(N)[C@@H](O[C@H]2OC([C@@H](C)O)[C@@H](O)C(O)C2N)C(O)[C@@H]1O (stereo in doubt) [NB144]
[2]
  mutation suppression activity (firefly expression and firefly/renilla expression ratio, G542X mutant sequence): notable dose-dependent readthrough activity
[3]
  firefly/renilla expression ratio compared with the control, wild type cell extracts: approx. 100%
